From ChEMBL document CHEMBL1148271, “3-(2-pyrrolidin-1-ylethyl)-5-(1,2,3,6-tetrahydropyridin-4-yl)-1H-indole derivatives as high affinity human 5-HT(1B/1D) ligands” (Bioorg Med Chem Lett, 2004) come the findings set out here.

The target of experiment [1] is 5-hydroxytryptamine receptor 1B (Homo sapiens, UniProt P28222). Description: Binding affinity was evaluated at the cloned human 5-hydroxytryptamine 1B receptor.
Experiment [2] has as its target 5-hydroxytryptamine receptor 1D (Homo sapiens, UniProt P28221). The experiment is described as follows: Binding affinity was evaluated at the cloned human 5-hydroxytryptamine 1D receptor.
Experiment [3] concerns the target Serotonin 1 receptors; 5-HT1B & 5-HT1D (Homo sapiens) (UniProt P28222+P28221). Description: Binding affinity ratio was evaluated (5-HT1B / 5-HT1D receptor). In kind it is protein assay.

5-hydroxytryptamine receptor 1D, sequence (P28221 whole entry): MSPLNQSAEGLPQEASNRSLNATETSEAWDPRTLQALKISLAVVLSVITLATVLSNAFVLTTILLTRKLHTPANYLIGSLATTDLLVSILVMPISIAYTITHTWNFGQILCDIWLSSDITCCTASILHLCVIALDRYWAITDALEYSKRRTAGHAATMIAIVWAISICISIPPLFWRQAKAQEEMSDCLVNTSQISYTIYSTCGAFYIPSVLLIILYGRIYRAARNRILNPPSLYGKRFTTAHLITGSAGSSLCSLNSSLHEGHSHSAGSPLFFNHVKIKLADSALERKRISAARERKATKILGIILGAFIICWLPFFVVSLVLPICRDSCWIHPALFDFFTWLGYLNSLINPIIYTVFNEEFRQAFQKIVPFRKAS
5-hydroxytryptamine receptor 1B, sequence (P28222 whole entry): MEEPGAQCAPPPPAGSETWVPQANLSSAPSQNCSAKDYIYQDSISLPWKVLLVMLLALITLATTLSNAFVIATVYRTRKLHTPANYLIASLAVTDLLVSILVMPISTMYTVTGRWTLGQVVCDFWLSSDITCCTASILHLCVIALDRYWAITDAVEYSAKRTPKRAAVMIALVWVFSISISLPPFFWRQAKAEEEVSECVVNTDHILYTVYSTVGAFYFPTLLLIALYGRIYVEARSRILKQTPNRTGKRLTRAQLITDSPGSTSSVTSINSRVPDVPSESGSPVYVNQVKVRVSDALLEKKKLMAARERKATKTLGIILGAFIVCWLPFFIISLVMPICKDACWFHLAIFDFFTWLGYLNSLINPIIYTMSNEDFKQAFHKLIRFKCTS

`O=S(=O)(c1cccc2ccccc12)N1CC=C(c2ccc3[nH]cc(CCN4CCCC4)c3c2)CC1`: the Ki in experiment [1] amounted to 410 nM; in experiment [2], 27 nM. For the same molecule, the Ratio in experiment [3] stood at 15.
On to `CN(C)CCc1c[nH]c2ccc(C3=CCN(C)CC3)cc12`, for which, in experiment [3], the Ratio worked out at 76.
Consider `COc1ccc(NC(=O)N2CC=C(c3ccc4[nH]cc(CCN5CCCC5)c4c3)CC2)cc1`, for which the Ki is 44 nM in experiment [1] and 7.8 nM in experiment [2]. Moreover, in experiment [3], the Ratio is 5.6.
Take `O=C(NC12CC3CC(CC(C3)C1)C2)N1CC=C(c2ccc3[nH]cc(CCN4CCCC4)c3c2)CC1`: the Ki in experiment [1] is 64 nM; in experiment [2], 29 nM. The Ratio in experiment [3] came out at 2.2.
For `O=S(=O)(c1ccccc1)N1CC=C(c2ccc3[nH]cc(CCN4CCCC4)c3c2)CC1`, in that order: 440 nM, 21 nM and 21.
With `O=S(=O)(c1ccc(Cl)cc1)N1CC=C(c2ccc3[nH]cc(CCN4CCCC4)c3c2)CC1`, the Ki was 110 nM in experiment [1] and 9.3 nM in experiment [2]. Moreover, in experiment [3], the Ratio stood at 12.
Regarding `S=C(NC12CC3CC(CC(C3)C1)C2)N1CC=C(c2ccc3[nH]cc(CCN4CCCC4)c3c2)CC1`, the figures for the Ki in experiment [1] and in experiment [2] were 170 nM and 29 nM, respectively. Further, the Ratio in experiment [3] is 5.9.
For `COc1ccc(NC(=S)N2CC=C(c3ccc4[nH]cc(CCN5CCCC5)c4c3)CC2)cc1`, in that order: 58 nM, 6.2 nM and 9.3.
Take `COc1ccc(S(=O)(=O)N2CC=C(c3ccc4[nH]cc(CCN5CCCC5)c4c3)CC2)cc1`: the Ki stood at 140 nM in experiment [1] and 11 nM in experiment [2]. For the same molecule, the Ratio in experiment [3] was 13.
For `C1=C(c2ccc3[nH]cc(CCN4CCCC4)c3c2)CCNC1` the same measures were 760 nM, 74 nM and 10.
For `O=C(Nc1cccc2ccccc12)N1CC=C(c2ccc3[nH]cc(CCN4CCCC4)c3c2)CC1`, in that order: 65 nM, 8.8 nM and 7.6.
For `Cc1ccc(S(=O)(=O)N2CC=C(c3ccc4[nH]cc(CCN5CCCC5)c4c3)CC2)cc1` the same measures were 140 nM, 12 nM and 12.
